Laboratory results: patent US10392348B2, “2-oxo-3,4-dihydroquinoline compounds as plant growth regulators” (Syngenta Participations AG, priority 2015, dated 2019)
Like-named read-outs stand apart in the source and are kept apart here.

Assays:
[1] = tested on: soybean plants (variety S20-G7); test: Reduced plant water use in soybean (foliar spray, repeated weighing of pots); format: in vivo; settings: vs negative control; for change in vivo at 500 µM: Glycine max, foliar, Table B1, sprayed at 500 μM; for % WU 0 DAA AM*: 0 DAA a.m.; for % WU 0DAA PM: 0 DAA p.m.; for % WU 1DAA AM: 1 DAA a.m.; for % WU 1DAA PM: 1 DAA p.m.; for % WU 2 DAA AM: 2 DAA a.m.; for % WU 2 DAA PM: 2 DAA p.m.
Method: Compounds were tested for their effect on reducing plant water use as follows. Each compound was dissolved in a blank emulsifiable concentrate (EC) formulation that was then diluted to the desired concentration with water containing additional surfactant (EXTRAVON 1 g/20 L). The compounds were applied by foliar spray to 12 day old soybean plants (variety S20-G7) grown in controlled environment plant growth chambers. Plant water use during the day was assessed by repeated weighing of the pots in which the plants were grown before and after application of the compounds at the indicated times (expressed in days after application (DAA)). The water use data before application was used to correct any differences in water use arising due to non-treatment effects (e.g. due to differences in plant size). The untransformed water use values were subjected to an analysis of covariance, fitting the effect of treatment and using the baseline water use 1 day before application as a covariate.
The results are expressed compared to negative control treatment (diluted EC formulation without active ingredient but with EXTRAVON 1 g/20 L).
Application of the chemicals (0 DAA) takes place approximately between 08:00 and 09:30 a.m. WU is measured within day time (chamber light is on 06:00 to 20:00) at these timepoints: 0 DAA a.m. (10:30-12:50), 0 DAA p.m. (14:00-19:50), 1 DAA a.m. (7:30-12:50), 1 DAA p.m. (14:00-19:50), 2 DAA a.m. (07:30-12:50) and 2 DAA p.m. (14:00-19:50). The cumulative total WU (0-2.5 DAA) is calculated by summing the WU data mentioned above.

[2] = tested on: corn plants (variety NK OCTET); test: Reduced plant water use in corn (foliar spray, repeated weighing of pots); format: in vivo; settings: Zea mays, corn plants sprayed at 500 μM, average of 6 pots
Method: Compounds were tested for their effect on reducing plant water use as follows. The compounds were applied by foliar spray to 12 day old corn plants (variety NK OCTET) grown in controlled environment plant growth chambers. All compounds were applied using an emulsifiable concentrate (EC) formulation that was diluted to the desired concentrations with water containing 0.4% of the adjuvant rape seed methyl ester. Plant water use during the day was assessed by repeated weighing of the pots in which the plants were grown before and after application of the compounds at the indicated times (expressed in days after application (DAA)). The water use data before application was used to correct any differences in water use arising due to non-treatment effects (e.g. due to differences in plant size). The untransformed water use values were subjected to an analysis of covariance, fitting the effect of treatment and using the baseline water use 1 day before application as a covariate. Application of the chemicals (0 DAA) takes place approximately between 08:00 and 09:30 a.m. WU is measured within day time (chamber light is on 06:00 to 20:00) at these timepoints: 0 DAA a.m. (10:30-12:50), 0 DAA p.m. (14:00-19:50), 1 DAA a.m. (07:30-12:50), 1 DAA p.m. (14:00-19:50), 2 DAA a.m. (07:30-12:50) and 2 DAA p.m. (14:00-19:50). The cumulative total WU (0-2.5 DAA) is calculated by summing the WU data mentioned above.

[3] = 0 h, 0 DAA a.m. (10:30-12:50), read-out: % WU 0 DAA AM
[4] = 24 h, 1 DAA a.m. (7:30-12:50), read-out: % WU 1DAA AM
[5] = 24 h, 1 DAA p.m. (14:00-19:50), read-out: % WU 1DAA PM
[6] = 48 h, 2 DAA a.m. (07:30-12:50), read-out: % WU 2 DAA AM
[7] = 48 h, 2 DAA p.m. (14:00-19:50), read-out: % WU 2 DAA PM
[8] = 60 h, cumulative total WU (0-2.5 DAA), read-out: % WU Total 0 to 2.5 DAA
[9] = 0 h, water use during day time vs negative control, 0 DAA a.m. (10:30-12:50), read-out: % WU 0 DAA AM
[10] = 0 h, water use during day time vs negative control, 0 DAA p.m. (14:00-19:50), read-out: % WU 0DAA PM
[11] = 24 h, water use during day time vs negative control, 1 DAA a.m. (07:30-12:50), read-out: % WU 1DAA AM
[12] = 24 h, water use during day time vs negative control, 1 DAA p.m. (14:00-19:50), read-out: % WU 1DAA PM
[13] = 48 h, water use during day time vs negative control, 2 DAA a.m. (07:30-12:50), read-out: % WU 2 DAA AM
[14] = 48 h, water use during day time vs negative control, 2 DAA p.m. (14:00-19:50), read-out: % WU 2 DAA PM
[15] = 60 h, cumulative total water use 0-2.5 DAA (sum of the time points) vs negative control, read-out: % WU Total 0 to 2.5 DAA

SMILES: CCCN1C(=O)CCc2cc(CNS(=O)(=O)CCCC(F)(F)F)ccc21 [Compound 3.020, 4,4,4-trifluoro-N-[(2-oxo-1-propyl-3,4-dihydroquinolin-6-yl)methyl]butane-1-sulfonamide]
- change in vivo at 500 µM [1, 3]: -19.3%
- change in vivo at 500 µM [1, 4]: -10.1%
- change in vivo at 500 µM [1, 5]: -5.5%
- change in vivo at 500 µM [1, 6]: -7.4%
- change in vivo at 500 µM [1, 7]: -4.2%
- change in vivo at 500 µM [1, 8]: -8.5%
- change in vivo at 500 µM [2, 9]: -19.2%
- change in vivo at 500 µM [2, 10]: -13.7%
- change in vivo at 500 µM [2, 11]: -14.8%
- change in vivo at 500 µM [2, 12]: -12.1%
- change in vivo at 500 µM [2, 13]: -11.5%
- change in vivo at 500 µM [2, 14]: -8.5%
- change in vivo at 500 µM [2, 15]: -12.7%

SMILES: CCCN1C(=O)CCc2cc(CNS(=O)(=O)/C=C/c3ccccc3F)ccc21 [Compound 3.056, (E)-2-(2-fluorophenyl)-N-[(2-oxo-1-propyl-3,4-dihydroquinolin-6-yl)methyl]ethenesulfonamide]
- change in vivo at 500 µM [2, 9]: -8.4%
- change in vivo at 500 µM [2, 10]: -2.7%
- change in vivo at 500 µM [2, 11]: -5.6%
- change in vivo at 500 µM [2, 12]: -4.4%
- change in vivo at 500 µM [2, 13]: -4.7%
- change in vivo at 500 µM [2, 14]: -3.2%
- change in vivo at 500 µM [2, 15]: -4.6%

SMILES: CCCN1C(=O)CCc2cc(CNS(=O)(=O)CCC)ccc21 [Compound 3.062, N-[(2-oxo-1-propyl-3,4-dihydroquinolin-6-yl)methyl]propane-1-sulfonamide]
- change in vivo at 500 µM [2, 9]: -17.8%
- change in vivo at 500 µM [2, 10]: -13%
- change in vivo at 500 µM [2, 11]: -13%
- change in vivo at 500 µM [2, 12]: -9.8%
- change in vivo at 500 µM [2, 13]: -8.1%
- change in vivo at 500 µM [2, 14]: -6.3%
- change in vivo at 500 µM [2, 15]: -10.5%

SMILES: C/C=C/CS(=O)(=O)NCc1ccc2c(c1)CCC(=O)N2CCC [Compound 3.066, (E)-N-[(2-oxo-1-propyl-3,4-dihydroquinolin-6-yl)methyl]but-2-ene-1-sulfonamide]
- change in vivo at 500 µM [2, 9]: -10.8%
- change in vivo at 500 µM [2, 10]: -7.1%
- change in vivo at 500 µM [2, 11]: -7.1%
- change in vivo at 500 µM [2, 12]: -6.8%
- change in vivo at 500 µM [2, 13]: -4.7%
- change in vivo at 500 µM [2, 14]: -5.5%
- change in vivo at 500 µM [2, 15]: -6.4%

SMILES: C=CCS(=O)(=O)NCc1ccc2c(c1)CCC(=O)N2CCC [Compound 3.071, N-[(2-oxo-1-propyl-3,4-dihydroquinolin-6-yl)methyl]prop-2-ene-1-sulfonamide]
- change in vivo at 500 µM [2, 9]: -11.2%
- change in vivo at 500 µM [2, 10]: -6.5%
- change in vivo at 500 µM [2, 11]: -4.5%
- change in vivo at 500 µM [2, 12]: -4.7%
- change in vivo at 500 µM [2, 13]: -3.5%
- change in vivo at 500 µM [2, 14]: -2.4%
- change in vivo at 500 µM [2, 15]: -4.9%

SMILES: CCCN1C(=O)CCc2cc(C3(NS(=O)(=O)c4ccccc4)CC3)ccc21 [Compound 15.001, N-[1-(2-oxo-1-propyl-3,4-dihydroquinolin-6-yl)cyclopropyl]benzenesulfonamide]
- change in vivo at 500 µM [1, 3]: -27.4%
- change in vivo at 500 µM [1, 4]: -14.9%
- change in vivo at 500 µM [1, 5]: -13.9%
- change in vivo at 500 µM [1, 6]: -9.5%
- change in vivo at 500 µM [1, 7]: -7.2%
- change in vivo at 500 µM [1, 8]: -15.1%
- change in vivo at 500 µM [2, 9]: -8.2%
- change in vivo at 500 µM [2, 10]: -6.5%
- change in vivo at 500 µM [2, 11]: -6.5%
- change in vivo at 500 µM [2, 12]: -3.5%
- change in vivo at 500 µM [2, 13]: -2.8%
- change in vivo at 500 µM [2, 14]: -1.8%
- change in vivo at 500 µM [2, 15]: -4.3%

SMILES: CCCN1C(=O)CCc2cc(C3(NS(=O)(=O)c4ccc(F)cc4)CC3)ccc21 [Compound 15.009, 4-fluoro-N-[1-(2-oxo-1-propyl-3,4-dihydroquinolin-6-yl)cyclopropyl]benzenesulfonamide]
- change in vivo at 500 µM [2, 9]: -10.7%
- change in vivo at 500 µM [2, 10]: -7.8%
- change in vivo at 500 µM [2, 11]: -8.7%
- change in vivo at 500 µM [2, 12]: -5.8%
- change in vivo at 500 µM [2, 13]: -5.4%
- change in vivo at 500 µM [2, 14]: -5.7%
- change in vivo at 500 µM [2, 15]: -7.1%

SMILES: CCN1C(=O)CC(C)c2cc(CNS(=O)(=O)c3ccc(F)cc3F)ccc21 (centres unmarked) [Compound 20.006, N-[(1-ethyl-4-methyl-2-oxo-3,4-dihydroquinolin-6-yl)methyl]-2,4-difluoro-benzenesulfonamide]
- change in vivo at 500 µM [2, 9]: -15.5%
- change in vivo at 500 µM [2, 10]: -14.5%
- change in vivo at 500 µM [2, 11]: -13.2%
- change in vivo at 500 µM [2, 12]: -7%
- change in vivo at 500 µM [2, 13]: -5.7%
- change in vivo at 500 µM [2, 14]: -4.3%
- change in vivo at 500 µM [2, 15]: -9.4%

SMILES: CCCN1C(=O)CCc2cc(NS(=O)(=O)Cc3ccc(C)cc3)ccc21 [Quinabactin, quinabactin, reference compound]
- % WU 0 DAA AM* ([1]; Table B2, rate 31.25 uM): −0.3%
- % WU 0DAA PM ([1]; Table B2, rate 31.25 uM): −0.3%
- % WU 1DAA AM ([1]; Table B2, rate 31.25 uM): 0.2%
- % WU 1DAA PM ([1]; Table B2, rate 31.25 uM): −0.1%
- % WU 2 DAA AM ([1]; Table B2, rate 31.25 uM): −0.9%
- % WU 2 DAA PM ([1]; Table B2, rate 31.25 uM): −1.3%
- % WU Total 0 to 2.5 DAA ([1]; Table B2, rate 31.25 uM, cumulative total WU (0-2.5 DAA)): −0.7%
- % WU 0 DAA AM* ([1]; Table B2, rate 125 uM): −15.3%
- % WU 0DAA PM ([1]; Table B2, rate 125 uM): −5.7%
- % WU 1DAA AM ([1]; Table B2, rate 125 uM): 1.8%
- % WU 1DAA PM ([1]; Table B2, rate 125 uM): 2.9%
- % WU 2 DAA AM ([1]; Table B2, rate 125 uM): 2.4%
- % WU 2 DAA PM ([1]; Table B2, rate 125 uM): 1.1%
- % WU Total 0 to 2.5 DAA ([1]; Table B2, rate 125 uM, cumulative total WU (0-2.5 DAA)): −0.5%
- % WU 0 DAA AM* ([1]; Table B2, rate 500 uM): −42.0%
- % WU 0DAA PM ([1]; Table B2, rate 500 uM): −41.2%
- % WU 1DAA AM ([1]; Table B2, rate 500 uM): −18.6%
- % WU 1DAA PM ([1]; Table B2, rate 500 uM): −10.8%
- % WU 2 DAA AM ([1]; Table B2, rate 500 uM): −3.8%
- % WU 2 DAA PM ([1]; Table B2, rate 500 uM): −2.9%
- % WU Total 0 to 2.5 DAA ([1]; Table B2, rate 500 uM, cumulative total WU (0-2.5 DAA)): −16.9%
